From US5919790A, “Hydroxamate inhibitors of interleukin-1β converting enzyme” (Warner-Lambert Company, priority 1997, dated 1999)
Like-named read-outs stand apart in the source and are kept apart here.

What was measured:
[1] = molecular target: T1, ICE (interleukin-1β converting enzyme) (Homo sapiens, UniProt P29466); assay: ICE inhibition, Ki, fluorescence assay with Ac-Tyr-Val-Ala-Asp-AMC; format: biochemical; conditions: 15 μM substrate Ac-Tyr-Val-Ala-Asp-AMC; 0.24 nM ICE; reversible, competitive model
T1 sequence (P29466 120-297 limits assumed): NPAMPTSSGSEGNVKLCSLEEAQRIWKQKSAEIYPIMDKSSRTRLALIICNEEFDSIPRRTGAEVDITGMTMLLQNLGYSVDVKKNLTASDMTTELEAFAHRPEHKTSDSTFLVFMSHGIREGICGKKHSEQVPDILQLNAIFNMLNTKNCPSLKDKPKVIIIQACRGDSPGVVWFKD
T1 sequence (P29466 317-404 limits assumed): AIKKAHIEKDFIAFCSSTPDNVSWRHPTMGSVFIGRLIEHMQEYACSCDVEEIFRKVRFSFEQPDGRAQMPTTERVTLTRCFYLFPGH
Procedure: Substrate hydrolysis is monitored for 300 seconds by observing the fluorescence of released AMC using excitation at 380 nm and emission at 460 nm. Mean rates of substrate hydrolysis are evaluated by linear-regression analysis of the fluorescence vs time traces. […] ICE Colorimetric Dose-Response (IC50) Assay

[2] = molecular target: T1, ICE (interleukin-1β converting enzyme); assay: ICE Colorimetric Dose-Response (IC50) Assay; format: biochemical; conditions: 50 μM Ac-Tyr-Val-Ala-Asp-pNA, 60 min preincubation, pH 7.5, 25° C.
Procedure: Substrate hydrolysis is monitored for 300 seconds by observing the fluorescence of released AMC using excitation at 380 nm and emission at 460 nm. Mean rates of substrate hydrolysis are evaluated by linear-regression analysis of the fluorescence vs time traces. […] ICE Colorimetric Dose-Response (IC50) Assay Diluted inhibitor stocks are prepared by two-fold serial dilution from a primary stock whose concentration is selected (based on screening results or on prior attempts at IC50 evaluation) to achieve approximately 95% inhibition in the most concentrated well. Aliquots of each dilution are transferred to a microtitre plate in triplicate. […] The activated enzyme is then aliquoted into wells containing inhibitor or vehicle, and the plate is preincubated for 60 minutes at ambient temperature. Substrate ([…]) is added to each well to a final concentration of 50 μM, and plates are placed in the microtitre plate-reader thermostated to 25° C. Beginning 5 minutes after addition of substrate, absorbance (405 nm) of wells is monitored for 1 hour, and activity is calculated as the mean rate of change in absorbance during this interval.

[3] = tested on: IL-1β production in human peripheral blood mononuclear cells (PBMCs); assay: inhibition of LPS-stimulated IL-1β production in human PBMCs (ELISA); format: cell-based; conditions: LPS stimulated overnight, mature IL-1β by ELISA
From the text: (§1) Further evidence that compounds of Formula I are inhibitors of ICE is provided by their ability to inhibit IL-1β production in human peripheral blood mononuclear cells (PBMCs) as described herein. PBMCs are isolated from heparinized blood by centrifugation over a ficoll cushion, then washed three times with phosphate-buffered saline. PBMCs are suspended in a medium containing RPMI 1640 with glutamine, penicillin, streptomycin and 2% human AB serum, then plated at 10^6 cells per well in 96 well flat bottom plates. PBMCs are stimulated overnight with 10 ngmL of lipopolysaccharide (LPS, E. coli strain 0111:B4; Calbiochem) in the presence or absence of a compound of Formulas I or II. Medium is harvested and the level of mature IL-1β was determined using an ELISA kit from R & D Systems. Cells were cultured for an additional 4 hours in the presence of 3-(4,5-dimethylthiazol-2-yl)-2,5-diphenyltetrazolium bromide (MTT) to determine viability.

PBMC viability (MTT) = format: cell-based; conditions: human PBMCs, additional 4 hours, read-out: PBMC TC50
From the text: as §1

Ich-2 = molecular target: T2, Ich-2 (Homo sapiens, UniProt P49662); assay: Ich-2 Colorimetric Dose-Response (IC50) Assay; format: biochemical; conditions: 64 nM enzyme, 60 μM Ac-Leu-Glu-Val-Asp-pNA
T2 sequence (P49662 81-270 limits assumed): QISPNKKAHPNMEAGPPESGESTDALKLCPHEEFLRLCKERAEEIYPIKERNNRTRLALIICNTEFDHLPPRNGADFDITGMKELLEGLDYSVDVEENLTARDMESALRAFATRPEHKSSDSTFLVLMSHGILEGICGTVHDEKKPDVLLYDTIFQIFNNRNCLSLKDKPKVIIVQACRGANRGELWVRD
T2 sequence (P49662 290-377 limits assumed): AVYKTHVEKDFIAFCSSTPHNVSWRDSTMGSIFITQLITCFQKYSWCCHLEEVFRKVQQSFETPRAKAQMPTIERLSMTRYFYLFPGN
Procedure: Diluted inhibitor stocks are prepared by two-fold serial dilution from a primary stock whose concentration is selected (based on screening results or on prior attempts at IC50 evaluation) to achieve approximately 95% inhibition in the most concentrated well. Aliquots of each dilution are transferred to a microtitre plate in triplicate.
ICE enzyme is diluted to approximately 24 nM in HGE buffer (100 mM Hepes pH 7.5, 0.5 mM EDTA, 20% glycerol, 0.1% Bovine Serum Albumin (BSA), and activated by adding dithiothreitol (DTT) to a final concentration of 5 mM. The activated enzyme is then aliquoted into wells containing inhibitor or vehicle, and the plate is preincubated for 60 minutes at ambient temperature. Substrate (Ac-Tyr-Val-Ala-Asp-pNA) is added to each well to a final concentration of 50 μM, and plates are placed in the microtitre plate-reader thermostated to 25° C. Beginning 5 minutes after addition of substrate, absorbance (405 nm) of wells is monitored for 1 hour, and activity is calculated as the mean rate of change in absorbance during this interval.
Ich-2 Colorimetric Dose-Response (IC50 Assay
Inhibition of Ich-2 enzyme is assayed as described above for ICE, except that enzyme is used at 64 nM, and 60 μM of the Ich-2-specific substrate Ac-Leu-Glu-Val-Asp-pNA is used instead of the ICE substrate Ac-Tyr-Val-Ala-Asp-pNA.

Row | Compound | Ki [1] [µM] | IC50 [2] [µM] | IC50 ([3]; PBMC) [µM] | CC50 at 4 h (PBMC viability (MTT)) [µM] | IC50 (Ich-2) [µM] | IC50 ([3]; read-out: PBMC IC50) [µM]
1 | O=C(O)CC(NC(=O)OCc1ccccc1)C(=O)CONC(=O)Cc1ccccc1 (centres unmarked) [Example 1, 3-Benzyloxycarbonylamino-4-oxo-5-phenylacetylaminooxy-pentanoic acid] | 79 | 260 | 817 |  |  | 
2 | O=C(O)C[C@H](NC(=O)OCc1ccccc1)C(=O)CON1CCCC1=O [Example 2, 3-Benzyloxycarbonylamino-4-oxo-5-(2-oxo-pyrrolidin-1-yloxy)-pentanoic acid] | 87 | 397 |  |  |  | 
3 | O=C(O)C[C@H](NC(=O)OCc1ccccc1)C(=O)CON1C(=O)C2C3C=CC(O3)C2C1=O (some centres unmarked) [Example 3, 3-Benzyloxycarbonylamino-5-(3,5-dioxo-10-oxa-4-aza-tricyclo[5.2.1.0^2,6]dec-8-en-4-yloxy)-4-oxo-pentanoic acid] | 2.1 | 0.46 | 1000 | 1000 | 0.1 | 
4 | O=C(O)CC(NC(=O)OCc1ccccc1)C(=O)CON1C(=O)Cc2ccccc21 (centres unmarked) [Example 4, 3-Benzyloxycarbonylamino-5-(2-oxo-2,3-dihydro-indol-1-yloxy)-4-oxo-pentannic acid] | 1.6 | 3.1 | 1000 | 1000 | 0.079 | 
5 | COC(=O)CC1CCCC2CC(=O)N(OCC(=O)[C@H](CC(=O)O)NC(=O)OCc3ccccc3)C12 (some centres unmarked) [Example 5, 3-Benzyloxycarbonylamino-5-(7-methoxycarbonylmethyl-2-oxo-octahydro-indol-1-yloxy)-4-oxo-pentanoic acid] | 15 | 80 | 883 |  | 34 | 
6 | O=C(O)CC(NC(=O)OCc1ccccc1)C(=O)CON1C(=O)CC2CCCCC21 (centres unmarked) [Example 6] | 9.2 | 37 |  |  |  | 
7 | COC(=O)CC1CCCC2CC(=O)N(OCC(=O)C(CC(=O)O)NC(=O)C(C)NC(=O)C(NC(=O)OCc3ccccc3)C(C)C)C12 (centres unmarked) [Example 7] | 0.007 | 0.026 |  |  | 0.14 | 4.8
8 | CC(NC(=O)C(NC(=O)OCc1ccccc1)C(C)C)C(=O)NC(CC(=O)O)C(=O)CON1C(=O)Cc2ccccc21 (centres unmarked) [Example 8, 3-[2-(2-benzyloxicarbonylamino-3-methyl-butyrylamino)-propionylamino]-4-oxo-5-(2-oxo-2,3-dihydro-indol-1-yloxy)-pentanoic acid] | 0.002 | 0.003 | 3 |  | 0.005 | 
